# Measurements taken from ChEMBL document CHEMBL5244205, “Discovery of tricyclic dipyrrolopyridine derivatives as novel JAK inhibitors” (Bioorg Med Chem, 2017).
# Legend:
# [1] = target: RAC-alpha serine/threonine-protein kinase (Homo sapiens, UniProt P31749); experiment: Inhibition of AKT1 (unknown origin)
# [2] = target: Dual specificity mitogen-activated protein kinase kinase 1 (Homo sapiens, UniProt Q02750); experiment: Inhibition of MAP2K1 (unknown origin)
# [3] = target: Mitogen-activated protein kinase 8 (Homo sapiens, UniProt P45983); experiment: Inhibition of JNK1 (unknown origin)
# Chain of Mitogen-activated protein kinase 8 (P45983 whole entry): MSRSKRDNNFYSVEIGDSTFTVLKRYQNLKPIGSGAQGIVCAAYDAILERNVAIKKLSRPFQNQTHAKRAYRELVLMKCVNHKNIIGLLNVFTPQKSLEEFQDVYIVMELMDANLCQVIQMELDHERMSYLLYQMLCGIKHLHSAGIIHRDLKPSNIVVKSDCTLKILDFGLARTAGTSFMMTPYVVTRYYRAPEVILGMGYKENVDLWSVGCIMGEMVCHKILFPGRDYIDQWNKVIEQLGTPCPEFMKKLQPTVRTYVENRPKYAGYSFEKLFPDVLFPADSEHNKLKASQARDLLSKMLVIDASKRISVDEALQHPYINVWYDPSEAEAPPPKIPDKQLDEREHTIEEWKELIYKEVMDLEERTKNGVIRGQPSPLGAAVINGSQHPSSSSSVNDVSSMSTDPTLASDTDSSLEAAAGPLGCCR
# Rattus norvegicus [4] = experiment: Immunosuppressive activity in Lewis rat transplanted with ACI rat cardiac tissue assessed as reduction in graft rejection by measuring mean survival days at 0.5 mg/kg, po administered for 14 consecutive days co-treated with tacrolimus (reference value: 10 days); type: functional; conditions: time 14 day
# [5] = target: Mitogen-activated protein kinase kinase kinase 1 (Homo sapiens, UniProt Q13233); experiment: Inhibition of MAP3K1 (unknown origin)
# [6] = AUC (0 to 24 hrs) in Sprague-Dawley rat at 1 mg/kg, iv measured up to 24 hrs by LC-MS/MS analysis; type: ADME, organism-based; parameters: dose 1 mg/kg, time < 24 hrs, route iv; conditions: in vivo
# [7] = target: Serine/threonine-protein kinase Chk1 (Homo sapiens, UniProt O14757); experiment: Inhibition of CHK1 (unknown origin)
# Chain of Serine/threonine-protein kinase Chk1 (O14757 whole entry): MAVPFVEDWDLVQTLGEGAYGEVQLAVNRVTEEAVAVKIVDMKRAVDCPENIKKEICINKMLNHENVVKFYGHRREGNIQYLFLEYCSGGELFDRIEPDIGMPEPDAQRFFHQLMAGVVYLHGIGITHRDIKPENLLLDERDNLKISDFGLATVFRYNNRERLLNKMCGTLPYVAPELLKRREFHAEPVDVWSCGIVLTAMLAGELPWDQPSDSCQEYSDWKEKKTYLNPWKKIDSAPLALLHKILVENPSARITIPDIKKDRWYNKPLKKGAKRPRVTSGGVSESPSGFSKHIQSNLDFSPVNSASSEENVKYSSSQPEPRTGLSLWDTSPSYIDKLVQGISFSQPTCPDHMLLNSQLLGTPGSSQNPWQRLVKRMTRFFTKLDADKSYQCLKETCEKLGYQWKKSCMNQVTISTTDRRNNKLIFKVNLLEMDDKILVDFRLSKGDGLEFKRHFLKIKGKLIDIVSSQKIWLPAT
# [8] = target: Glycogen synthase kinase-3 beta (Homo sapiens, UniProt P49841); experiment: Inhibition of GSK3beta (unknown origin)
# [9] = target: Insulin-like growth factor 1 receptor (Homo sapiens, UniProt P08069); experiment: Inhibition of IGF1R (unknown origin)
# Chain of Insulin-like growth factor 1 receptor (P08069 31-736 limits assumed): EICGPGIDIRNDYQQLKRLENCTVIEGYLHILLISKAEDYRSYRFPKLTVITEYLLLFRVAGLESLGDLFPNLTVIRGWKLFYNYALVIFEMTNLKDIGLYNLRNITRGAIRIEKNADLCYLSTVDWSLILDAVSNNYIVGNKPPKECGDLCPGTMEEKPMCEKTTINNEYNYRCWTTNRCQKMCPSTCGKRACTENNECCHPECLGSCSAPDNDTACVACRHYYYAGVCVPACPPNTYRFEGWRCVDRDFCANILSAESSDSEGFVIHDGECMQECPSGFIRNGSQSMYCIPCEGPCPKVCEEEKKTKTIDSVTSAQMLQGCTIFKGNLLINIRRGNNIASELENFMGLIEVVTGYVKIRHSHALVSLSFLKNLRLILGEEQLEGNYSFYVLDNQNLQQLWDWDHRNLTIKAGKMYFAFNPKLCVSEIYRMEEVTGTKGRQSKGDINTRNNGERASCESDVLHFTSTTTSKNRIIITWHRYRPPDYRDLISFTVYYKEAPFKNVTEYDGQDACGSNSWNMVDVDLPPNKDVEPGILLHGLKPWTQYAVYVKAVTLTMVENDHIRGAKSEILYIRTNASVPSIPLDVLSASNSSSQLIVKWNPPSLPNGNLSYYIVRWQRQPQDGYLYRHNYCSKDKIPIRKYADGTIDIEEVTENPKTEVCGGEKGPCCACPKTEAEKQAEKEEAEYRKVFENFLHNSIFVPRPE
# Chain of Insulin-like growth factor 1 receptor (P08069 741-1367 limits assumed): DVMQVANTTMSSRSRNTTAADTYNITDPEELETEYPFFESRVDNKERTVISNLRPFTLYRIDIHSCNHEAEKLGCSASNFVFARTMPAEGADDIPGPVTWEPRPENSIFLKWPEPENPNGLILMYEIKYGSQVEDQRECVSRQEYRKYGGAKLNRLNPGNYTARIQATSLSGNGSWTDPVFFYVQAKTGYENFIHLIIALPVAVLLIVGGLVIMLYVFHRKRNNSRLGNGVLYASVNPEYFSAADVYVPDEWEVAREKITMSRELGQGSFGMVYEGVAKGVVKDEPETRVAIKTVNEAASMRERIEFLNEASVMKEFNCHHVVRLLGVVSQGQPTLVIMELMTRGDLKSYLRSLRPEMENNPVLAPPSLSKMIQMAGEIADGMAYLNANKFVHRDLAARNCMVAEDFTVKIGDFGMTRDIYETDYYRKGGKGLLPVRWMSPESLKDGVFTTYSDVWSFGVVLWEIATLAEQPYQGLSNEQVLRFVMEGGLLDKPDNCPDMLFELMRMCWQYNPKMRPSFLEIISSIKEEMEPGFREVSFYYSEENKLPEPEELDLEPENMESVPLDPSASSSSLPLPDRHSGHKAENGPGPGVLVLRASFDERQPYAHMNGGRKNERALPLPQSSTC
# [10] = Tmax in Sprague-Dawley rat at 1 mg/kg, po measured up to 24 hrs by LC-MS/MS analysis; type: ADME, organism-based; conditions: in vivo
# [11] = target: Epidermal growth factor receptor (Homo sapiens, UniProt P00533); experiment: Inhibition of EGFR (unknown origin)
# Chain of Epidermal growth factor receptor (P00533 whole entry): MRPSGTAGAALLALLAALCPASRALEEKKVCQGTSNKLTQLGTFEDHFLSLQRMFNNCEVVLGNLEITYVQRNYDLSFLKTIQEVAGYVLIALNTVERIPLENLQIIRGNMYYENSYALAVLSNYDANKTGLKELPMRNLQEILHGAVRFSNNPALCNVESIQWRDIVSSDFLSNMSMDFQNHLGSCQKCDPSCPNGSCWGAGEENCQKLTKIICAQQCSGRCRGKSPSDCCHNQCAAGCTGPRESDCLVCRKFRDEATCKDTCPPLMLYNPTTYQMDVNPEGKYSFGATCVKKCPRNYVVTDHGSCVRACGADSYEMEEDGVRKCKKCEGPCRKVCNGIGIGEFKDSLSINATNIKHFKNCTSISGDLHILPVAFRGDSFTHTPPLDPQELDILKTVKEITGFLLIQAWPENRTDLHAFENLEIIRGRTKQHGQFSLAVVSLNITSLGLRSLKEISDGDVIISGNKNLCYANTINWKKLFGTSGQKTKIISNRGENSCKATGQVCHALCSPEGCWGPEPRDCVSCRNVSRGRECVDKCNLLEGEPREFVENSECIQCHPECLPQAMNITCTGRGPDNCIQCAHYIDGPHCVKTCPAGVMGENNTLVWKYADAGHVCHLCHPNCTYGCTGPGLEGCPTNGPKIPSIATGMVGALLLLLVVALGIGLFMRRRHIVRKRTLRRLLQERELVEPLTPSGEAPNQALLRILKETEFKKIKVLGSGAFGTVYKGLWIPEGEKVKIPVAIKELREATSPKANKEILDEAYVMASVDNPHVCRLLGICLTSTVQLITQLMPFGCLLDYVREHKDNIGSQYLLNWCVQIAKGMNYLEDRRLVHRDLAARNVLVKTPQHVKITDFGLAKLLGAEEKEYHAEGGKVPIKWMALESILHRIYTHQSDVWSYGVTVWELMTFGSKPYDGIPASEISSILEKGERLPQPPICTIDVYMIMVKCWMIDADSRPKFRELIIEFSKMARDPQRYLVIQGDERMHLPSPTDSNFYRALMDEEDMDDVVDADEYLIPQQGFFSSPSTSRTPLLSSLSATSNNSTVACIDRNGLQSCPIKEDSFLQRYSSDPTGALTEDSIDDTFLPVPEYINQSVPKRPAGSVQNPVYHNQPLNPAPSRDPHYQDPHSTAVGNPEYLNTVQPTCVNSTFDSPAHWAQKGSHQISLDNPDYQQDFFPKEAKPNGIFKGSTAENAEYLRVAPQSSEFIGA
# [12] = target: Cyclin-dependent kinase 2 (Homo sapiens, UniProt P24941); experiment: Inhibition of CDK2 (unknown origin)
# [13] = target: Tyrosine-protein kinase JAK2 (Homo sapiens, UniProt O60674)
# Description: Inhibition of human JAK2 kinase domain using biotin-Lyn-substrate-2 as substrate incubated for 1 hr by ELISA
# [14] = target: Bone morphogenetic protein receptor type-1A (Homo sapiens, UniProt P36894); experiment: Inhibition of BMPR1A (unknown origin)
# [15] = target: RAF proto-oncogene serine/threonine-protein kinase (Homo sapiens, UniProt P04049); experiment: Inhibition of RAF1 (unknown origin)
# [16] = target: Calcium/calmodulin-dependent protein kinase type II subunit alpha (Homo sapiens, UniProt Q9UQM7); experiment: Inhibition of CAMK2alpha (unknown origin)
# [17] = Oral availability in Sprague-Dawley rat at 1 mg/kg measured up to 24 hrs by LC-MS/MS analysis; type: ADME, organism-based; conditions: in vivo
# [18] = target: Tyrosine-protein kinase CSK (Homo sapiens, UniProt P41240); experiment: Inhibition of CSK (unknown origin)
# [19] = target: Ribosomal protein S6 kinase beta-1 (Homo sapiens, UniProt P23443); experiment: Inhibition of p70S6K (unknown origin)
# [20] = target: Tyrosine-protein kinase ITK/TSK (Homo sapiens, UniProt Q08881); experiment: Inhibition of ITK (unknown origin)
# Chain of Tyrosine-protein kinase ITK/TSK (Q08881 whole entry): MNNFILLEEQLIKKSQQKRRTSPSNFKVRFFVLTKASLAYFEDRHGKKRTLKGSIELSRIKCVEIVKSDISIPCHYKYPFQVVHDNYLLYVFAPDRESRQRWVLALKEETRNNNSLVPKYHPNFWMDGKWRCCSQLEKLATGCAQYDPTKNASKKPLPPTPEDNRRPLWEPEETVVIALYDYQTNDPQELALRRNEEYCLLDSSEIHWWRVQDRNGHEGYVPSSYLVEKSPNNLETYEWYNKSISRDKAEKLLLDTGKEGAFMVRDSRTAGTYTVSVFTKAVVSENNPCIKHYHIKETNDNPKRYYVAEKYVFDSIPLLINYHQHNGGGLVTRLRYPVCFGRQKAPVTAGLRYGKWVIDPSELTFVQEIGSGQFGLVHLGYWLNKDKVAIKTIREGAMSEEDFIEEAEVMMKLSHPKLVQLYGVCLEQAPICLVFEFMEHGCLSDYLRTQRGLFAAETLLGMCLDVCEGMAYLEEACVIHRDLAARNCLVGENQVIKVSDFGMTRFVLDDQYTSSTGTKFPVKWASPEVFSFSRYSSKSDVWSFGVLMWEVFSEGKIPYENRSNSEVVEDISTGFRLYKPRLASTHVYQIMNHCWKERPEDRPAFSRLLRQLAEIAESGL
# [21] = target: Tyrosine-protein kinase ABL1 (Homo sapiens, UniProt P00519); experiment: Inhibition of ABL (unknown origin)
# Rattus norvegicus [22] = experiment: Immunosuppressive activity in Lewis rat transplanted with ACI rat cardiac tissue assessed as reduction in graft rejection by measuring mean survival days at 0.25 mg/kg, po administered for 14 consecutive days co-treated with tacrolimus (reference value: 10 days); type: functional; conditions: time 14 day
# [23] = target: MAP kinase-activated protein kinase 2 (Homo sapiens, UniProt P49137); experiment: Inhibition of MAPKAPK2 (unknown origin)
# cells = conditions: Rattus norvegicus, Lewis, Splenocyte, 72 h
# Description: Immunosuppressive activity in Lewis rat splenocytes assessed as inhibition of concanavalin A-induced IL-2 receptor expression incubated for 3 days by alamarBlue assay
# Rattus norvegicus [24] = experiment: Immunosuppressive activity in Lewis rat transplanted with ACI rat cardiac tissue assessed as reduction in graft rejection by measuring mean survival days at 0.1 mg/kg, po administered for 14 consecutive days co-treated with tacrolimus (reference value: 10 days); type: functional; conditions: time 14 day
# [25] = target: Inhibitor of nuclear factor kappa-B kinase subunit beta (Homo sapiens, UniProt O14920); experiment: Inhibition of IKKB (unknown origin)
# [26] = target: Tyrosine-protein kinase JAK1 (Homo sapiens, UniProt P23458)
# Description: Inhibition of human JAK1 kinase domain using biotin-Lyn-substrate-2 as substrate incubated for 1 hr by ELISA
# [27] = target: High affinity nerve growth factor receptor (Homo sapiens, UniProt P04629); experiment: Inhibition of TRKA (unknown origin)
# [28] = Clearance in Sprague-Dawley rat at 1 mg/kg, iv measured up to 24 hrs by LC-MS/MS analysis; type: ADME, organism-based; conditions: in vivo
# [29] = target: Tyrosine-protein kinase ZAP-70 (Homo sapiens, UniProt P43403); experiment: Inhibition of ZAP70 (unknown origin)
# Chain of Tyrosine-protein kinase ZAP-70 (P43403 whole entry): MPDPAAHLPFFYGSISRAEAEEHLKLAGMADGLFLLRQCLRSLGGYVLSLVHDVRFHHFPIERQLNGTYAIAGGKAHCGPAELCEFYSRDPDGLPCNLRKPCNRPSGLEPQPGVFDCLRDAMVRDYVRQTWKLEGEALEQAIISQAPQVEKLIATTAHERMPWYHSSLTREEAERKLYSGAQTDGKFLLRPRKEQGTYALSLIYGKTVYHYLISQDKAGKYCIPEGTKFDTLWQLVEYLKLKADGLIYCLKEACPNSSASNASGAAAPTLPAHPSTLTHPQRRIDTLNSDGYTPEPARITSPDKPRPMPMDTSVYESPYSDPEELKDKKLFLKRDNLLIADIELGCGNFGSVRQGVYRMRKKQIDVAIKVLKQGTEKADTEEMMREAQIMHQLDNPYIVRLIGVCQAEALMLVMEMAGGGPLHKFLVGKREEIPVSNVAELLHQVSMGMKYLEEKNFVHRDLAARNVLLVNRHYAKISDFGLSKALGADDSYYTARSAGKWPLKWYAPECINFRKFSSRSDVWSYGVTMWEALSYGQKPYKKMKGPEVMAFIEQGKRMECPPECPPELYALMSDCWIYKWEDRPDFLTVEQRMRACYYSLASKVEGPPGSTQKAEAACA
# [30] = AUC (0 to 24 hrs) in Sprague-Dawley rat at 1 mg/kg, po measured up to 24 hrs by LC-MS/MS analysis; type: ADME, organism-based; parameters: dose 1 mg/kg, time < 24 hrs, route po; conditions: in vivo
# [31] = target: Proto-oncogene tyrosine-protein kinase Src (Homo sapiens, UniProt P12931); experiment: Inhibition of SRC (unknown origin)
# [32] = Half life in Sprague-Dawley rat at 1 mg/kg, iv measured up to 24 hrs by LC-MS/MS analysis; type: ADME, organism-based; conditions: in vivo
# [33] = Volume of distribution in Sprague-Dawley rat at 1 mg/kg, iv measured up to 24 hrs by LC-MS/MS analysis; type: ADME, organism-based; conditions: in vivo
# [34] = pampa, pH 6.5, 2 h
# Description: Permeability of the compound in pH 6.5 incubated for 2 hrs by PAMPA based HPLC analysis
# Angiopoietin-1 receptor = Angiopoietin-1 receptor (Homo sapiens, UniProt Q02763); experiment: Inhibition of TIE2 (unknown origin)
# Ephrin type-A receptor 2 = Ephrin type-A receptor 2 (Homo sapiens, UniProt P29317); experiment: Inhibition of EphA2 (unknown origin)
# Cytochrome P450 3A4 = Cytochrome P450 3A4 (Homo sapiens, UniProt P08684); conditions: microsomes, 20 min, 5 µM
# Aurora kinase C = Aurora kinase C (Homo sapiens, UniProt Q9UQB9); experiment: Inhibition of AURC (unknown origin)
# [35] = target: Mitogen-activated protein kinase 11 (Homo sapiens, UniProt Q15759); experiment: Inhibition of P38beta (unknown origin)
# Chain of Mitogen-activated protein kinase 11 (Q15759 whole entry): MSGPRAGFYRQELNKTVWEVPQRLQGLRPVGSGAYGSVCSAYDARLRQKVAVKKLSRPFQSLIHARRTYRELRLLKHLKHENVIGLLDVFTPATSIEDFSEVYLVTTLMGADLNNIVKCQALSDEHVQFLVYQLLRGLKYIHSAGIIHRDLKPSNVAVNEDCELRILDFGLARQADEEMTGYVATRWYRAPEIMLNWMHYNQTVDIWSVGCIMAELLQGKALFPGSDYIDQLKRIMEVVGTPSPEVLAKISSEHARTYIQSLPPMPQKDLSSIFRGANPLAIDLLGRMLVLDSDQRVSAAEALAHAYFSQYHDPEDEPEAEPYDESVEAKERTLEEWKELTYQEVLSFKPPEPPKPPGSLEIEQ
# [36] = Half life in Sprague-Dawley rat at 1 mg/kg, po measured up to 24 hrs by LC-MS/MS analysis; type: ADME, organism-based; conditions: in vivo
# [37] = Cmax in Sprague-Dawley rat at 1 mg/kg, po measured up to 24 hrs by LC-MS/MS analysis; type: ADME, organism-based; parameters: time < 24 hrs, dose 1 mg/kg, route po; conditions: in vivo
smiles,measurement,setting,value
C[C@@H]1CCN(C(=O)CC#N)C[C@@H]1n1ccc2cnc3[nH]ccc3c21,IC50,[1],> 1 µM
same,IC50,[2],> 1 µM
same,IC50,[3],> 1 µM
same,MST,Rattus norvegicus [4],21 days
same,IC50,[5],> 1 µM
same,AUC(0-t) at 24 h,[6],889 ng·h/mL
same,IC50,[7],> 1 µM
same,IC50,[8],> 1 µM
same,IC50,[9],> 1 µM
same,Tmax,[10],0.5 h
same,IC50,[11],> 1 µM
same,IC50,[12],> 1 µM
same,IC50,[13],0.0003 µM
same,IC50,[14],> 1 µM
same,IC50,[15],> 1 µM
same,IC50,[16],> 1 µM
same,bioavailability,[17],103%
same,IC50,[18],> 1 µM
same,IC50,[19],> 1 µM
same,IC50,[20],> 1 µM
same,IC50,[21],> 1 µM
same,MST,Rattus norvegicus [22],21 days
same,IC50,[23],> 1 µM
same,IC50,cells,0.0043 µM
same,MST,Rattus norvegicus [24],9 days
same,IC50,[25],> 1 µM
same,IC50,[26],0.00046 µM
same,IC50,[27],> 1 µM
same,clearance,[28],18.8 mL/min/kg
same,IC50,[29],> 1 µM
same,AUC(0-t) at 24 h,[30],917 ng·h/mL
same,IC50,[31],> 1 µM
same,half-life,[32],1.64 h
same,Vd,[33],1.52 L/kg
same,permeability,[34],20 10^-6 cm/s
same,IC50,Angiopoietin-1 receptor,> 1 µM
same,IC50,Ephrin type-A receptor 2,> 1 µM
same,TDI,Cytochrome P450 3A4,89%
same,IC50,Aurora kinase C,> 1 µM
same,IC50,[35],> 1 µM
same,half-life,[36],2.58 h
same,Cmax,[37],260 ng/mL
